Patent publication US20240059741A1, “COMPOSITION FOR PREVENTION OR TREATMENT OF SARS-COV-2 INFECTION” (priority 2020, published 2024)

Tests used:
SARS-CoV-2 S1 [1] = test system: SARS-CoV-2 S1
proteinaseK = target: T1, proteinaseK (Parengyodontium album, UniProt P06873); assay: Peptide remaining degree after ProtK treatment (Coomassie staining); type: in vitro ADME; conditions: 5 ug/ml proteinaseK, 37° C., 10, 30 and 60 minutes, FIG. 7
T1 construct: purchased Bioshop
Procedure: 200 μL of 50 μM stock solution was prepared with a base buffer (10 mM Tris-base, 10 mM NaCl, pH 7.4) and supplemented with 5 μM CaCl2. For untreated TO samples, 30 μL were obtained from each sample. Thereafter, 5 ug/ml of proteinaseK (Bioshop) was added to a final concentration of the remaining stock. […] Protease inactivated samples were frozen at −20° C. before further use. The frozen sample was supplemented with 8 μL of sample loading buffer (4×NuPAGE; ThermoFisher Scientific), boiled for 10 minutes (50° C.), and centrifuged at 13,500 RPM for 10 minutes before mounting a gel [12% NuPAGE Bis-Tris (ThermoFisher Scientific)] with 1×Mes running buffer. The gel was treated at 200 V for 35 minutes and stained with Coomassie Brilliant Blue dye G-250 (Thermo Fisher Scientific). ImageJ software having a background subtractive function was used as a density meter. All samples were normalized to untreated samples (TO).

SARS-CoV-2 S1 [2] = test system: SARS-CoV-2 S1; remark: listed apart in the source

T1 sequence (P06873 106-384, species assumed): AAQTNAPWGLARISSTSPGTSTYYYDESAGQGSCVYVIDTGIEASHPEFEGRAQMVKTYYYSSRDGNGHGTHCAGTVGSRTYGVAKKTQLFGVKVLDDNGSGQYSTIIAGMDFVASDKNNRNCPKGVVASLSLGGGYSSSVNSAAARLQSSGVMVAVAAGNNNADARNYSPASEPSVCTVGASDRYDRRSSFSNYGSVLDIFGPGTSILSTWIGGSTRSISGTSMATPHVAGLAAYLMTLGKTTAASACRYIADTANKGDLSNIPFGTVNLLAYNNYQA

## CC[C@H](C)[C@H](N)C(=O)N[C@@H](CCC(=O)O)C(=O)N[C@@H](CCC(=O)O)C(=O)N[C@@H](CCC(N)=O)C(=O)N[C@@H](C)C(=O)N[C@@H](CCCCN)C(=O)N[C@H](C(=O)N[C@@H](Cc1ccccc1)C(=O)N[C@@H](CC(C)C)C(=O)N[C@@H](CC(=O)O)C(=O)N[C@@H](CCCCN)C(=O)N[C@@H](Cc1ccccc1)C(=O)N[C@@H](CC(N)=O)C(=O)N[C@@H](Cc1c[nH]cn1)C(=O)N[C@@H](CCC(=O)O)C(=O)N[C@@H](C)C(=O)N[C@@H](CCC(=O)O)C(=O)N[C@@H](CC(=O)O)C(=O)N[C@@H](CC(C)C)C(=O)N[C@@H](Cc1ccccc1)C(=O)N[C@@H](Cc1ccc(O)cc1)C(=O)N[C@@H](CCC(N)=O)C(=O)N[C@@H](CO)C(=O)N[C@@H](CO)C(=O)N[C@@H](CC(C)C)C(=O)N[C@@H](C)C(=O)N[C@@H](CO)C(=O)NCC(=O)N1CCC[C@H]1C(=O)NCC(=O)N[C@H]1CSSC[C@@H](C(=O)N[C@@H](CCCNC(=N)N)C(=O)N[C@H](C(=O)N[C@@H](CC(C)C)C(=O)O)[C@@H](C)CC)NC(=O)[C@H](CC(=O)O)NC(=O)CNC(=O)[C@H](CCCCN)NC(=O)CNC(=O)[C@H](CC(C)C)NC1=O)[C@@H](C)O [CSNP1]
SARS-CoV-2 S1 [1]
  ka: 603.4 M⁻¹ s⁻¹
proteinaseK
  peptide remaining degree after proteinase K treatment: barely remained
SARS-CoV-2 S1 [2]
  kd: 0.0001878 s⁻¹
